Among the data in patent US20040127519A1 (Pharmacia Corporation, priority 2002, published 2004) are IC50 values, retold here.

This test concerns the target Recombinant MAPKAPK2 (Homo sapiens, UniProt P49137). Description: Determination of MK-2 IC50 (HSP-peptide phosphorylation, anion exchange resin capture assay). The test is classed as biochemical. As to the method:
The phosphorylation of HSP-peptide ([…]) by MAPKAPK2 was measured using an anion exchange resin capture assay method. […] The reaction was terminated and [γ^33P]ATP was removed from solution by the addition of 150 μl of AG 1×8 ion exchange resin in 900 mM sodium formate pH 3.0. A 50 μl aliquot of head volume was removed from the quenched reaction mixture and added to a 96-well plate, 150 μl of Microscint-40 (Packard) was added and the amount of phosphorylated-peptide was determined. Allow the Microscint to sit in the plates for 60 minutes prior to counting.
Compounds are evaluated as potential inhibitors of the MK2 kinase by measuring their effects on MK2 phosphorylation of the peptide substrate. Compounds may be screened initially at two concentrations prior to determination of IC50 values. Screening results are expressed as percent inhibition at the concentrations of compound tested. For IC50 value determinations, compounds are tested at six concentrations in ten-fold serial dilutions with each concentration tested in triplicate. Results are expressed as IC50 values in micromolar. The assay is performed at a final concentration of 2% DMSO.

Where [1] appears, read: MK-2 Avg. IC50, Table I, aminocyanopyridine MK-2 inhibitors.
The mark [2] stands for this setting: MK-2 Avg. IC50, Table 2, tricyclic aminocyanopyridine MK-2 inhibitors.

Recombinant MAPKAPK2, sequence (P49137 whole entry, species assumed): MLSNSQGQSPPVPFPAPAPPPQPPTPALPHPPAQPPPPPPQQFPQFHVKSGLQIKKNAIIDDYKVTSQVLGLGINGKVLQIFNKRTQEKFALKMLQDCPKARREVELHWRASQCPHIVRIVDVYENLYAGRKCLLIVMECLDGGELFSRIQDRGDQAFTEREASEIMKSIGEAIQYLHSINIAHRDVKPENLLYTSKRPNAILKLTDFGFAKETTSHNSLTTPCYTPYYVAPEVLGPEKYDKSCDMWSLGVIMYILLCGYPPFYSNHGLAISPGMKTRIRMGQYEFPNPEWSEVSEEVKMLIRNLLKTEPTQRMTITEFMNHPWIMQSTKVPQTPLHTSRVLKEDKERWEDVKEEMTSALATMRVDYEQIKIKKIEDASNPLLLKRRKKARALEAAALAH

In the case of `N#Cc1c(N)nc2c(c1-c1cccc(F)c1F)CCc1[nH]ncc1-2` [Example 3], the 50% inhibitory concentration (IC50) under setting [1] stood at 1.95 µM.

Regarding `N#Cc1c(N)nc2c(c1-c1ccco1)CCc1cc(C(=O)O)ccc1-2` [Example 5], the IC50 under setting [1] came to 2.35 µM.

For `N#Cc1c(-c2c[nH]c(C(N)=O)c2)cc(-c2ccco2)nc1N` [Example 6], under setting [1], the IC50 was determined as 2.41 µM. As for `N#Cc1c(N)nc2c(c1-c1ccccc1)CCc1n[nH]cc1-2` [Example 7], the IC50 under setting [1] was determined as 2.73 µM. The same measure, in the same setting: to `Cn1cnc(-c2cc(-c3ccco3)nc(N)c2C#N)c1` [Example 8] belongs 2.88 µM. Same read-out and setting: the value for `N#Cc1c(N)nc2c(c1-c1ccco1)CCc1cc(O)ccc1-2` [Example 10] was 3.48 µM. As to `N#Cc1c(N)nc2c(c1N)Cc1ccc(OCCO)cc1O2` [Example 10], the IC50 under setting [2] worked out at 0.483 µM.

`N#Cc1c(N)nc2c(c1-c1c(F)cccc1F)CCc1[nH]ncc1-2` [Example 11]: the IC50 under setting [1] turned out to be 3.59 µM. Turning to `N#Cc1c(-c2cnc[nH]2)cc(-c2ccc(O)cc2)nc1N` [Example 12], the IC50 under setting [1] was found to be 3.62 µM. Consider `N#Cc1c(N)nc2c(c1N)Cc1cc(N)ccc1O2` [Example 12], for which the IC50 under setting [2] amounted to 0.514 µM.

For `N#Cc1c(-c2ccccc2F)cc(-c2ccco2)nc1N` [Example 13], the IC50 under setting [1] is 4.06 µM.

For the compound `CCOCCOc1cc2c(cc1O)Cc1c(nc(N)c(C#N)c1N)O2` [Example 14], under setting [2], the IC50 came to 0.62 µM. As to `N#Cc1c(-c2ccccc2F)cc(-c2ccco2)nc1N` [Example 14], the IC50 under setting [1] came to 4.41 µM. For the compound `COc1ccc2c(c1O)Oc1nc(N)c(C#N)c(N)c1C2` [Example 15], under setting [2], the IC50 came out at 0.682 µM. As for `N#Cc1c(N)nc2c(c1-c1ccccc1F)CCc1ccccc1-2` [Example 15], under setting [1], the IC50 was determined as 4.47 µM.

With `N#Cc1c(-c2ccco2)cc(-c2ccc(C(=O)O)cc2)nc1N` [Example 16], the IC50 under setting [1] came to 4.63 µM. For the compound `N#Cc1c(-c2cnc[nH]2)cc(-c2ccco2)nc1N` [Example 17], under setting [1], the IC50 worked out at 4.94 µM. The same measure, in the same setting: to `N#Cc1c(N)nc2c(c1-c1nnc[nH]1)CCc1cc(C(=O)O)ccc1-2` [Example 19] belongs 5.74 µM. `N#Cc1c(N)nc2c(c1N)Cc1ccc(OCCN)cc1O2` [Example 19]: under setting [2], the IC50 stood at 0.82 µM.

With `N#Cc1c(-c2cnc[nH]2)cc(-c2cccc(O)c2)nc1N` [Example 20], the IC50 under setting [1] worked out at 5.81 µM.

With `N#Cc1c(N)nc2c(c1N)Cc1cc(C(=O)O)ccc1O2` [Example 20], the IC50 under setting [2] worked out at 0.857 µM. Consider `N#Cc1c(-c2cnc[nH]2)cc(-c2ccco2)nc1N` [Example 21], for which the IC50 under setting [1] was determined as 5.95 µM. Regarding `N#Cc1c(N)nc2c(c1N)Cc1ccc(O)c(O)c1O2` [Example 21], the IC50 under setting [2] was 0.857 µM. For the compound `N#Cc1c(N)nc2c(c1N)CC(C(F)(F)F)O2` (stereo not drawn) [Example 23], under setting [1], the IC50 worked out at 6.14 µM.

With `N#Cc1c(N)nc2c(c1N)Cc1ccc(OCC(=O)O)cc1O2` [Example 23], the IC50 under setting [2] was 0.916 µM. For the compound `COc1cccc2c1Oc1nc(N)c(C#N)c(N)c1C2` [Example 24], under setting [2], the IC50 is 1.37 µM. As for `N#Cc1c(N)nc2c(c1-c1ccco1)CCc1c[nH]cc1-2` [Example 24], the IC50 under setting [1] came out at 6.2 µM. Take `N#Cc1c(-c2ccccc2F)cc(-c2ccc(C(=O)O)cc2)nc1N` [Example 25]: under setting [1], the IC50 was 6.4 µM.

For the compound `N#Cc1c(N)nc2c(c1N)Cc1ccc(OCCN3CCCC3)cc1O2` [Example 25], the IC50 under setting [2] is 1.68 µM. Still for that read-out and setting: the value for `CNc1c(C#N)c(N)nc2c1Cc1cc(OC)c(OC)cc1O2` [Example 26] was 1.69 µM. Regarding `N#Cc1c(N)nc2c(c1-c1ccco1)CCc1cnccc1-2` [Example 26], the IC50 under setting [1] worked out at 6.48 µM.

In the case of `COc1ccc2c(c1)Oc1nc(N)c(C#N)c(N)c1C2` [Example 27], the IC50 under setting [2] worked out at 1.72 µM. `N#Cc1c(-c2ccccc2F)cc(-c2ccc(O)c(O)c2)nc1N` [Example 27]: the IC50 under setting [1] amounted to 7.54 µM. With `CN(C)CCOc1ccc2c(c1)Oc1nc(N)c(C#N)c(N)c1C2` [Example 28], under setting [2], the IC50 was 1.75 µM. `Cn1cnc(-c2cc(-c3ccccc3)nc(N)c2C#N)c1` [Example 28]: the IC50 under setting [1] turned out to be 7.63 µM.

`COc1cc(N)cc2c1Oc1nc(N)c(C#N)c(N)c1C2` [Example 29]: the IC50 under setting [2] was 1.79 µM. In the case of `N#Cc1c(-c2ccco2)cc(-c2cc[nH]n2)nc1N` [Example 29], under setting [1], the IC50 was 7.72 µM. The same measure, in the same setting: the value for `N#Cc1c(-c2cnc[nH]2)cc(-c2ccc(C(=O)O)cc2)nc1N` [Example 30] was 8.37 µM; that for `N#Cc1c(N)nc2c(c1-c1cccc(F)c1)CCc1n[nH]cc1-2` [Example 31] was 8.5 µM.

Regarding `N#Cc1c(N)nc2c(c1N)Cc1cc(OCCN)c(OCCN)cc1O2` [Example 31], the IC50 under setting [2] is 2.55 µM.

Regarding `N#Cc1c(-c2ccccc2F)cc(-c2ccc(O)c(O)c2)nc1N` [Example 32], under setting [1], the IC50 was determined as 9.2 µM. Take `N#Cc1c(N)nc2c(c1N)Cc1cccc([N+](=O)[O-])c1O2` [Example 32]: under setting [2], the IC50 was 2.58 µM.

Take `COc1ccc(Nc2c(C#N)c(N)nc3c2Cc2cc(OC)c(OC)cc2O3)cc1` [Example 33]: the IC50 under setting [2] came out at 2.98 µM. With `CS(=O)(=O)Nc1ccc(-c2cc(-c3ccco3)c(C#N)c(N)n2)cc1` [Example 33], the IC50 under setting [1] was determined as 9.27 µM.

`COc1ccc2c(c1)Oc1nc(N)c(C#N)c(N)c1C2` [Example 34]: the IC50 under setting [2] came to 3.24 µM.

In the case of `N#Cc1c(N)nc2c(c1-c1ccco1)CCc1[nH]ccc1-2` [Example 34], the IC50 under setting [1] is 9.4 µM. Same read-out and setting: the value for `N#Cc1c(-c2cnc[nH]2)cc(-c2ccccc2)nc1N` [Example 35] was 9.4 µM. As to `N#Cc1c(N)nc2c(c1N)C(C(C#N)C#N)c1cc(O)ccc1O2` (stereo not drawn) [Example 35], the IC50 under setting [2] was determined as 4.22 µM. As to `N#Cc1c(N)nc2c(c1-c1ccco1)CCc1ccccc1-2` [Example 36], the IC50 under setting [1] was 9.42 µM. On to `CCNc1c(C#N)c(N)nc2c1Cc1ccc(OCC)cc1O2` [Example 37], for which, under setting [2], the IC50 came out at 4.76 µM. For the compound `COc1ccc(-c2cc(-c3cnc[nH]3)c(C#N)c(N)n2)cc1` [Example 37], the IC50 under setting [1] was 9.43 µM.

`N#Cc1c(-c2ccco2)cc(-c2cn[nH]c2)nc1N` [Example 39]: under setting [1], the IC50 amounted to 11.6 µM. The same measure, in the same setting: the value for `COc1ccc(-c2c(C#N)c(N)nc3c2CCc2[nH]ncc2-3)cc1` [Example 40] was 12 µM. For the compound `COc1ccc(Nc2c(C#N)c(N)nc3c2Cc2cc(OC)c(OC)cc2O3)cc1` [Example 40], under setting [2], the IC50 was found to be 6.11 µM. Regarding `N#Cc1c(N)nc2c(c1-c1ccc(F)cc1)CCc1n[nH]cc1-2` [Example 42], the half-inhibitory concentration (IC50) under setting [1] amounted to 12.9 µM. `N#Cc1c(N)nc2c(c1N)Cc1ccc(CN3CCCCC3)c(O)c1O2` [Example 42]: the IC50 under setting [2] worked out at 8.28 µM.

On to `C=CCOc1cc2c(cc1OCC=C)Oc1nc(N)c(C#N)c(N)c1C2` [Example 43], for which, under setting [2], the IC50 was 9.6 µM. Consider `N#Cc1c(N)nc2c(c1-c1nnc[nH]1)CCc1ccccc1-2` [Example 43], for which the concentration for half-maximal inhibition (IC50) under setting [1] stood at 13.1 µM. Consider `CCOCCNc1c(C#N)c(N)nc2c1Cc1ccc(OCCOCC)cc1O2` [Example 44], for which, under setting [2], the IC50 turned out to be 9.66 µM. `N#Cc1c(N)nc2c(c1N)CC(CCl)O2` (stereo not drawn) [Example 44]: under setting [1], the IC50 turned out to be 13.4 µM.

For the compound `CC(C)(C)OC(=O)COc1cc2c(cc1OCC(=O)OC(C)(C)C)Oc1nc(N)c(C#N)c(N)c1C2` [Example 45], the IC50 under setting [2] stood at 10.3 µM.

Take `N#Cc1c(-c2cnc[nH]2)cc(-c2ccccc2)nc1N` [Example 45]: under setting [1], the IC50 came out at 14.2 µM. On to `COc1cc2c(cc1OC)Oc1nc(N)c(C#N)c(NCCN)c1C2` [Example 46], for which the IC50 under setting [2] came out at 11.5 µM. Regarding `N#Cc1c(-c2ccco2)cc(-c2ccc(S(N)(=O)=O)cc2)nc1N` [Example 46], the IC50 under setting [1] is 16.1 µM. With `N#Cc1c(-c2ccco2)cc(-c2ccc(B(O)O)cc2)nc1N` [Example 47], the IC50 under setting [1] was 16.7 µM. Consider `COc1ccc(-c2cc(-c3nnc[nH]3)c(C#N)c(N)n2)cc1` [Example 48], for which the IC50 under setting [1] is 17.3 µM. `N#Cc1c(N)nc2c(c1N)Cc1cc(N)ccc1S2(=O)=O` [Example 48]: under setting [2], the IC50 was 14.4 µM. For the compound `N#Cc1c(-c2ccccc2F)cc(-c2ccoc2)nc1N` [Example 49], the IC50 under setting [1] turned out to be 17.9 µM. As for `N#Cc1c(N)nc2c(c1N)Cc1cc(Br)ccc1O2` [Example 49], the IC50 under setting [2] came to 15.1 µM. The same measure, in the same setting: to `CCCNc1c(C#N)c(N)nc2c1Cc1cc(OC)c(OC)cc1O2` [Example 50] belongs 15.6 µM. `CSc1cc(-c2ccco2)nc(N)c1C#N` [Example 50]: the IC50 under setting [1] was 22.5 µM. On the same count and under the same terms, to `N#Cc1c(-c2ccccc2F)cc(-c2cccc(O)c2)nc1N` [Example 51] belongs 24.2 µM. For the compound `N#Cc1c(N)nc2c(c1N)Cc1cc(O)ccc1S2` [Example 51], the IC50 under setting [2] turned out to be 17.4 µM. Still for that read-out and setting: to `CN(C)c1ccc2c(c1)Cc1c(nc(N)c(C#N)c1N)O2` [Example 52] belongs 17.6 µM; to `COc1ccc2c(c1)Cc1c(nc(N)c(C#N)c1N)O2` [Example 53], 19.7 µM. As to `N#Cc1c(-c2ccccc2Br)cc(-c2ccco2)nc1N` [Example 53], the IC50 under setting [1] was 26.1 µM.

For `COc1cccc2c1Oc1nc(N)c(C#N)c(N)c1C2C(C#N)C#N` (stereo not drawn) [Example 54], the IC50 under setting [2] turned out to be 21.2 µM. On the same count and under the same terms, to `COc1cc2c(cc1OC)Oc1nc(N)c(C#N)c(NCc3ccccc3)c1C2` [Example 55] belongs 27.4 µM.

As to `N#Cc1c(-c2ccccc2)cc(-c2cccs2)nc1N` [Example 55], the IC50 under setting [1] was 26.9 µM. As for `C=CCOc1ccc2c(c1)Oc1nc(N)c(C#N)c(N)c1C2` [Example 56], the IC50 under setting [2] came to 33.8 µM. Regarding `COc1cccc(-c2c(C#N)c(N)nc3c2CCc2[nH]ncc2-3)c1` [Example 56], the IC50 under setting [1] is 27.8 µM.
